Ten substances from article PMC8136485, “Were Ancestral Proteins Less Specific?” (Molecular Biology and Evolution, 2021) can be followed below.

Ends that are not written are not given here. * marks the point of attachment. 5FAM = O=C1OC2(c3ccc(O)cc3Oc3cc(O)ccc32)c2ccc(C(=O)*)cc21

Assay [1] has as its target T1, hA6 (human S100A6) (Homo sapiens, UniProt P06703).
T1 construct: His tag with TEV protease cleavage site (N, cleaved yes); made in house; host or cells: Rosetta E. coli (DE3) pLysS
Nature of the assay: Fluorescence polarization, displacement of 5FAM probe peptide. It counts as binding. Particulars: displacement of 5FAM-labelled probe, 50 mM TES, 100 mM NaCl, 0.01% Tween-20, pH 7.4, 2.4-4.2 µM protein with equal probe, technical triplicate, corrected for probe. From the text: (§1) To mimic the phage display experiment, we measured binding by displacement of a fluorescently labeled probe peptide. For our probe, we used the competitor peptide from the phage display experiment with the addition of an N-terminal 5-FAM fluorophore (fig. 3A). […] We could then measure fluorescence polarization of the probe peptide as a function of increasing concentrations of unlabeled peptide. A peptide that binds at the same site as the probe will displace the probe and thereby change the fluorescence polarization.
(§2) We did the fluorescence polarization experiments in 50 mM TES, 100 mM NaCl, and 0.01% Tween-20, pH 7.4, thus matching the phage display experimental buffer. We ordered all nine test peptides and the probe peptide in milligram quantities at 95% purity (Genscript). For the probe peptide, we used “5FAM-[…],” where 5FAM indicates an N-terminally linked 5-carboxyfluorescein moiety. […] The only exception was […], which we dissolved in ddH2O .
(§3) We measured fluorescence anisotropy using a SpectraMax i3 plate reader (Molecular Devices) with 96-well black plates (Corning). Prior to reading each plate, we shook for 5 s and then acquired with 500 ms integration time. Prior to the set of experiments, we optimized detector height and calibrated the plate’s xy position to maximize signal. We then kept this calibration throughout the set of experiments. For each experiment, we recorded both vertical (vv) and horizontal (vh) emission channels and then converted to arbitrary polarization units by: (5) R=vv−Gvh/vv+2Gvh with G set to 1.0. Titrations were done by serial dilution through conditions on individual plates, followed by measurement of all wells. We did all measurements in technical triplicate. We used custom software to programmatically remove technical replicate outliers.
(§4) For our production experiments, we added increasing amounts of competitor peptide to wells with between 2.4 and 4.2 µM protein (monomer). Each well also contained probe peptide at the same concentration as the protein. We selected these concentrations to maximize the amount of signal change upon addition of competitor peptide KD,probe . We calculated the expected signal change by: (7) ΔPpredicted=ΔPmax×[MX]/[X]T where ΔPmax=0.135 (as determined by our initial fits to extract probe peptide KD,probe ), [X]T was the total probe concentration, and [MX] was the concentration of the probe/protein complex prior to adding competitor peptide. We calculated [MX] by: (8) [MX]=([X]T+[M]T+KD,probe)±([X]T+[M]T+KD,probe)^2−4[X]T[M]T/2 where [M]T was the total protein concentration.
(§5) Prior to fitting a binding model to each curve, we converted it from polarization to fractional saturation. We did so by first fitting the single-site binding model to the data to obtain an estimate of the initial polarization (P0) for the protein/peptide pair. We then subtracted this value of P0 to obtain a baseline-subtracted polarization. We then divided the baseline-subtracted polarization by ΔPpredicted , yielding a fractional saturation (θ).
(§6) We then fit a reduced form of the single-site binding model to the data: (9) θ=[protein]/[protein]+KD,apparent
(§7) Finally, we corrected the resulting KD,apparent to account for the effect of the competitor peptide ([Hulme and Trevethick 2010]): (10) KD,peptide=KD,apparent/1+[X]T*(1−δ/2)/KD,probe+δ/(1−δ) where [X]T is the total probe peptide concentration and δ=[MX]/[X]T .
In general terms: In fluorescence polarisation assays a small probe gives low polarisation when free and higher when bound to something large.

The target of assay [2] is T2, hA5 (human S100A5) (Homo sapiens, UniProt P33763).
T2 construct: His tag with TEV protease cleavage site (N, cleaved yes); made in house; host or cells: Rosetta E. coli (DE3) pLysS
T2 sequence (P33763 1-92): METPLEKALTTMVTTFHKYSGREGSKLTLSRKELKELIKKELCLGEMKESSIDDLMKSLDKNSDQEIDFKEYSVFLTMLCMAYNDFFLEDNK
The assay is described as above. The assay is classed as binding. The note with it: displacement of 5FAM-labelled probe, 50 mM TES, 100 mM NaCl, 0.01% Tween-20, pH 7.4, 2.4-4.2 µM protein with equal probe, technical triplicate, corrected for probe.
Description: as §1, §2, §3, §4, §5, §6, §7

In a further assay the test system is ancA5/A6. The assay can be described thus: Fluorescence polarization, direct titration of probe peptide with protein. It counts as binding. Particulars: 0.03 μM probe, 0 to ≈200 μM protein, 2 mM CaCl2, then 5 mM EDTA added.
Description: as §1
(§8) We fit the curve to a single-site binding model: (6) P([protein])∼ΔPmax[protein]/[protein]+KD,probe+P0 where P0 is the polarization of the peptide in the absence of protein, ΔPmax is the change in signal from unbound peptide to bound to the protein, and KD,probe is the probe dissociation constant. After recording the titration curve in the presence of CaCl2, we added 5 mM EDTA to all wells and remeasured the curve.
(§9) Fig S6: Binding of /f_luorescent probe peptide is calcium dependent. Panel show measured /f_luorescence anisotropy for the peptide 5FAM- GFDWR […] in the presence of […]
(§10) increasing protein concentration. Probe concentration was 0.03 uM. Proteins are hA5 (purple), hA6 (orange), ancA5/A6 (green), and human S100A9 (black). S100A9 is a negative control, because it is evolutionarily distant from hA5 and hA6 and would thus not be expec ted to bind to the probe […]

Another assay has as its system hA5. The assay is described as above. The assay is classed as binding, human. The note with it: 0.03 μM probe, 0 to ≈200 μM protein, 2 mM CaCl2, then 5 mM EDTA added.
Description: as §1, §8, §9, §10

The subject of another assay is hA6. Described as above. The note with it: 0.03 μM probe, 0 to ≈200 μM protein, 2 mM CaCl2, then 5 mM EDTA added. The assay is classed as binding, human.
Description: as §1, §8, §9, §10

Assay [3] has as its target T2, hA5 (human S100A5). The assay can be described thus: Quantitative phage display enrichment with/without competitor peptide. The assay is classed as binding. The note with it: E=−ln(cnon-competitor/ccompetitor), panning in 2 mM Ca2+, elution 5 mM EDTA, 20 μM competitor, E≤−1.5 taken as binder. From the text:
(§11) We next set out to measure the binding of S100 proteins to this library of random 12-mer peptides. The S100 peptide-binding interface is only exposed upon Ca^2+ -binding (fig. 1A); therefore, we performed phage panning experiments in the presence of saturating Ca^2+ and then eluted the bound phage using saturating ethylenediaminetetraacetic acid (EDTA) (fig. 2B). After this panning step, the population of enriched phage particles will be a mixture of those that bind at the site of interest and those that bind adventitiously (blue and purple phage, fig. 2B) ([Sidhu et al. 2000]; [Willats 2002]). To separate these populations, we repeated the panning experiment in the presence of a saturating concentration of competitor peptide known to bind at the site of interest ([…], fig. 2C) ([Wheeler et al. 2018]). This should lower the enrichment of peptides that bind at the site of interest, while allowing any adventitious interactions to remain. By comparing the competitor and noncompetitor pools, we can distinguish between specific and adventitious binders.
(§12) After panning, we sequenced the resulting phage pools using Illumina sequencing. […] We estimated changes in the frequencies of peptides between samples with and without competitor peptide (supplementary fig. S3, Supplementary Material online). For each peptide, we determined E: (1) E=−ln(cnon-competitor/ccompetitor) where ccompetitor and cnon-competitor are the sequence counts for the peptide recovered from parallel Ca^2+/EDTA panning experiments done with and without competitor peptides.
(§13) If E < 0, the competitor peptide interferes with the Ca^2+ -dependent enrichment of the peptide. […] If E > 0, the competitor peptide improves Ca^2+ -dependent enrichment of the phage peptide. This could occur if the phage peptide binds more favorably to the S100/competitor peptide complex than the S100 alone. […]
(§14) Phage display experiments were performed using the PhD-12 peptide phage display kit (NEB). […] Eluates were tittered to quantify eluted phage as follows. […]

Assay [4] has as its target T1, hA6 (human S100A6). Described as above. It counts as binding. The note with it: E=−ln(cnon-competitor/ccompetitor), panning in 2 mM Ca2+, elution 5 mM EDTA, 20 μM competitor, E≤−1.5 taken as binder.
Description: as §11, §12, §13, §14

Assay [5] has as its system ancA5/A6 (reconstructed last common ancestor of S100A5 and S100A6). The description is as above. It counts as binding. Particulars: ancA5/A6 (aA5A6 in csv); E=−ln(cnon-competitor/ccompetitor); panning in 2 mM Ca2+, elution 5 mM EDTA; 20 μM competitor; E≤−1.5 taken as binder.
Description: as §11, §12, §13, §14

On hA6 (human S100A6) [1], GEVTNYGYLVDQGGSAE [phage_ctl_7] returned a Kd of 42.7 µM.
As to RHGFLQDILFKLGGSAE [phage_ctl_1], the results for the equilibrium dissociation constant (Kd) on hA5 (human S100A5) [2] and at hA6 (human S100A6) [1] were 36.4 µM and 61.7 µM, respectively.
In the case of 5FAM-GFDWRWGMEALTGGGSAE [probe], the “calcium dependence of probe binding” value in the assay with ancA5/A6, in the assay with hA5 and with hA6 was “bound in a calcium-dependent manner” in each case.
For SSSTYPGFRQSTGGSAE [phage_ctl_8], the Kd on hA6 (human S100A6) [1] was found to be 202 µM.
For the substance EQPLLKYLQLMRGGSAE [phage_ctl_5], binding at hA5 (human S100A5) [2] was characterised by a dissociation constant (Kd) of 85.8 µM.
Same read-out and setting: in the case of HVQWRDRNVIEWGGSAE [phage_ctl_6] it was 123 µM.
For the substance “SGPSDWLHKGVLGGSAE [phage_ctl_9, phage display 12-mer peptide with C-terminal flank, ordered as synthetic test peptide]”, the “E (enrichment)” value on hA5 (human S100A5) [3] was 0.5882; on hA6 (human S100A6) [4], 0.5131; in assay [5], 5.052.
As to EGLDLMSILELIGGSAE [phage_ctl_0], the Kd at hA5 (human S100A5) [2] is 47.2 µM; at hA6 (human S100A6) [1], 48.7 µM.
Regarding GWLEQYFSRTADGGSAE [phage_ctl_2], the dissociation constant (Kd) is 18.6 µM on hA5 (human S100A5) [2] and 14.6 µM on hA6 (human S100A6) [1].
SRQTTSTHEWVVGGSAE [phage_ctl_4]: the “Kd (KD,peptide)” value at hA5 (human S100A5) [2] is “No model could be reliably fit”. Also, the Kd on hA6 (human S100A6) [1] was 102 µM.

The Kd is a measure of binding affinity in units of concentration. Low readings indicate tighter binding, high ones weaker binding.
